No end group written: not given here.
Key:
[1] = Serum total IGF-1 levels after in vivo GHRH; set-up: species or system rat; conditions: high-NaCl fed rats injected with GHRH, 1 mg/kg BW sc/day, 2 days
Procedure: (§1) Two-month-old male Sprague Dawley rats (Charles River Canada, St-Constant, QC) were kept in temperature- (22° C.), humidity- (65%) and lighting- (12h cycles; lights on at 0700 h) controlled rooms and had free access to standard rat chow (2018 Tecklad global 18% protein rodent diet, containing 0.23% Na^+ and 0.4% Cl^−; Harlan Tecklad, Madison, Wis.) and tap water. Rats were acclimatized ≈3 days before going on a high-NaCl diet or water deprivation. Rats fed the custom-made high-NaCl diet for 2, 7 or 14 (8% NaCl; Harlan Tecklad) were compared to rats fed the custom-made control diet (0.3% NaCl; Harlan Tecklad). They had free access to water. Rats deprived of water for 3 or 5 days had free access to 2018 Tecklad rat chow. Rats used in the first series of experiments, to quantify GHRH-R mRNA levels following a 8%-NaCl diet or a water deprivation, were housed individually in metabolic cages for the entire duration of intervention. Body weight (BW), food and water intakes, and urine volume were recorded daily, and Na^+ levels were analyzed on the last 24h urine sample before sacrifice. Rats used in the 8%-NaCl diet/GHRH study were housed individually in plastic cages and BW and food intake were recorded daily. Rats were sacrificed in a block-design fashion between 0900-1130 h, by rapid decapitation. […]

[2] = system: thin limbs of Henle's loop cells; experiment: In vivo BrdU immunolabeling (DNA repair/synthesis) in purified thin limb cells; set-up: species or system rat; conditions: 1 mg/kg BW sc/day, 2 days, 8%-NaCl chow
Procedure: as §1, with “Rats deprived of water for 3 or 5 days had free access to 2018 Tecklad rat chow.” left out, “daily.” for “daily. Rats were sacrificed in a block-design fashion between 0900-1130 h, by rapid decapitation.”
BrdU immunolabeling (Roche Diagnostics, Laval, QC, CA) was used to quantify DNA repair/synthesis in purified thin limb cells from rat submitted 2 days to a 8%- or 0.3%-NaCl diet and injected with GHRH or saline. […]

GHRH-R mRNA [3] = experiment: Renal medulla GHRH-R mRNA levels after in vivo GHRH in high-NaCl fed rats; set-up: species or system rat; conditions: high-NaCl fed rats injected with GHRH, 1 mg/kg BW sc/day, 2 days
Procedure: as §1, with “Rats deprived of water for 3 or 5 days had free access to 2018 Tecklad rat chow.” left out, “daily.” for “daily. Rats were sacrificed in a block-design fashion between 0900-1130 h, by rapid decapitation.”
Total RNA from medullas and purified descending and ascending thin limb cells was extracted with TRIzol (Invitrogen Canada, Burlington, ON). […] Tissue GHRH-R and GAPDH mRNA and cRNA external standard levels were quantified by densitometry. […]

[4] = system: anterior pituitary GHRH-R mRNA; experiment: Anterior pituitary GHRH-R mRNA levels after in vivo GHRH; set-up: species or system rat; conditions: 2-day in vivo GHRH
Procedure: as §1, with “Rats deprived of water for 3 or 5 days had free access to 2018 Tecklad rat chow.” left out, “daily.” for “daily. Rats were sacrificed in a block-design fashion between 0900-1130 h, by rapid decapitation.”
Total RNA was extracted as above. […] Membranes were subsequently washed, exposed to films, stripped and rehybridized with GAPDH 28S probes.^33 Quantification of each GHRH-R mRNA transcript (2.5 and 4 kb), GAPDH mRNA and 28S rRNA levels was performed by densitometry. […]

[5] = Body weight and food intake of rats on 8%-NaCl diet injected with GHRH; assay type: in vivo, rat; conditions: 2-day 8%-NaCl diet, injected with GHRH or saline
Procedure: as §1

GHRH-R mRNA [6] = experiment: GHRH-R mRNA levels by real-time RT-PCR in purified thin limb cells after in vivo sc GHRH; set-up: species or system rat; conditions: 2 days; for GHRH-R mRNA levels: 1 mg/kg BW/day sc
Procedure: as §1, with “decapitation. Pituitaries, kidneys and livers were excised immediately and anterior pituitaries and renal medullas dissected out. Tissues were snap-frozen in liquid nitrogen and stored at −80° C. until RNA extraction.” for “decapitation.”
Total RNA from purified thin limb cells was extracted with TRIzol. […] Reverse transcription of 2 μg total RNA was performed using the SuperScript™ II RT kit (Invitrogen) and random hexamer primers, according to the manufacturer's protocol, including RNAse H treatement. mRNA levels of rat GHRH-R and rat GAPDH (internal control) were determined in separate tubes, by real-time PCR, using a 1/150 (GHRH-R) and 1/300 (GAPDH) dilution of the RT product and the reagents from the Quantitect™ SYBR® Green PCR kit (Qiagen, Mississauga, ON, CA), according to the manufacturer's recommendation. […]

GHRH-R = molecular target: T1, GHRH-R (Rattus norvegicus, UniProt Q02644); experiment: GHRH-induced intracellular cAMP production in freshly dispersed semi-purified thin limb cells (EIA); assay type: cell-based
T1 construct: endogenous in cells; host or cells: freshly dispersed semi-purified thin limb cells of Henle's loop from the renal medulla of 2-month-old male Sprague Dawley rats
T1 sequence (Q02644 53-423 isoform Q02644-2): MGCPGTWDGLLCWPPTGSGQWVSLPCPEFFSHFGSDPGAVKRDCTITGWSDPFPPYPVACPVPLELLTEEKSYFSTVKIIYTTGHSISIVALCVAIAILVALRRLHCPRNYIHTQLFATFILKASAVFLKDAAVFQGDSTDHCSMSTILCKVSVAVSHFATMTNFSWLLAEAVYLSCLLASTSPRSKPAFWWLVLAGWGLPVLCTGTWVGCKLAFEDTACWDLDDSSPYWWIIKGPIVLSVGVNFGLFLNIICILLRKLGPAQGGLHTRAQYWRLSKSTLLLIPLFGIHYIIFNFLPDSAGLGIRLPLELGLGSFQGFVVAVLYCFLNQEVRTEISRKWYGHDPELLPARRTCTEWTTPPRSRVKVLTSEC
Procedure: Cell dispersion of minced medullas to obtain semi-purified thin limb cells was performed as previously described.^33 These cells were used immediately for in vitro determination of basal and rGHRH(1-29)NH2-induced cAMP levels or purified by differential centrifugation for immunocytochemistry, using a continuous gradient of Nycodenz. The gradient was prepared as described by Grupp et al.^55 and thin limb cells were recovered in fraction I of the gradient after centrifugation at 1500 g (16° C., 45 min) and washed twice in HEPES-Ringer buffer (430 g, 16° C., 10 min). Cell viability, assessed by the Trypan Blue exclusion method, was around 95%. When purified thin limb cells were cultured, isolation and purification steps were performed under sterile conditions and media containing antibiotics.
Sensitivity to GHRH was assessed in freshly semi-purified thin limb cells^33 from rats fed a 8%-NaCl diet for 2, 7 or 14 days or the control diet. […] Supernatants were used to quantify immunoreactive cAMP levels (non-acetylated method). Pellets were kept frozen for determination of protein content.^59 Optical densities were measured at 450 nm, using a microplate reader (Bio-Rad, model 3550). […]

[7] = 14-day sc administration, cited from earlier work
CIC-K1 mRNA = CIC-K1 mRNA levels by real-time RT-PCR in purified thin limb cells after in vivo sc GHRH; set-up: species or system rat; conditions: 1 mg/kg BW/day sc, 2 days

- decrease of GHRH-induced cAMP production (GHRH-R; 1 nM and 100 nM, cells from rats fed 2 days 8%-NaCl chow vs control diet): 1.5 fold
- loss of sensitivity to GHRH (cAMP production) (GHRH-R; cells from rats fed the high-salt diet for 7 or 14 days): reverted
Substance: rGHRH(1-29)NH2 (HADAIFTSSYRRILGQLYARKLLHEIMNR-NH2) [rat growth hormone-releasing hormone fragment 1-29 amide, synthesized in the applicant's laboratory]
- serum total insulin-like growth factor-1 (IGF-1) levels [1]: not modified
- increase in intensity of mitochondrial BrdU immunofluorescence [2]: ≈ 7 times
- increase in the number of ascending thin limb cell nuclei and mitochondria immunolabeled to BrdU ([2]; vs control groups): 5 times
- GHRH-R mRNA levels in the renal medulla (GHRH-R mRNA [3]): tended to increase
- anterior pituitary GHRH-R mRNA levels [4]: No significant regulatory effect
- body weight (BW) [5]: No change
- food intake [5]: No change
- regulation of renal GHRH-R mRNA levels in thin limb cells (GHRH-R mRNA [6]; 0.5 mg/kg BW/day sc, healthy rats, P<0.01): up-regulate
- GHRH-R mRNA levels (GHRH-R mRNA [6]; 5 other rats): decreased
- GHRH-R mRNA levels (GHRH-R mRNA [6]; subgroup of 3 rats): significantly increased
- IGF-I serum levels significantly decreased ([7]; 0.5 mg/kg BW/day): not
- IGF-I serum levels ([7]; 1 mg/kg BW/day): significantly decreased
- CIC-K1 mRNA levels (CIC-K1 mRNA; 5 other rats): without significantly altering
- CICK-1 mRNA levels (CIC-K1 mRNA; subgroup of 3 rats): significantly increased
